# Tested on: various strains of bacteria
# Test: Antimicrobial potency: bacterial growth inhibition by OD600 (Antibacterial assay 1, MITC95)
# Format: cell-based, A. baumannii
# Conditions: Acinetobacter baumannii, 20 h, lowest concentration giving >95% growth inhibition, CAMHB, 18-22 h
# Outline: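 Compounds were two-fold serially diluted in DMSO (2% final) against approx. 2×10^5 cfu/mL inocula in CAMHB and incubated at 35+2degC for 18-22 h. Growth was read as OD600, and MITC95 was taken as the lowest concentration giving >95% growth inhibition.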
row,SMILES,MIC [µM]
1,O=C(O)c1cc(CN2CC(Oc3ccc(NS(=O)(=O)c4cnn(-c5ccc(F)cc5)n4)c(C(=O)O)c3)C2)ccc1NS(=O)(=O)c1cnn(-c2ccc(F)cc2)n1 [Compound 118],0.0245
2,O=C(O)c1cc(OC[C@H]2CC[C@@H](COc3ccc(NS(=O)(=O)c4ccc(-c5ccc(F)cc5)cc4)c(C(=O)O)c3)O2)ccc1NS(=O)(=O)c1ccc(-c2ccc(F)cc2)cc1 [Compound 22],0.0489
3,"O=C(O)c1cc(CN2CC(Oc3ccc(NS(=O)(=O)c4ccc(-c5ccc(F)cc5)cc4)c(C(=O)O)c3)C2)ccc1NS(=O)(=O)CCc1ccc(Cl)cc1 [Compound 99, 5-((1-(3-carboxy-4-((2-(4-chlorophenyl)ethyl)sulfonamido)benzyl)azetidin-3-yl)oxy)-2-((4′-fluoro-[1, l′-biphenyl])-4-sulfonamido)benzoic acid]",0.0245

# From patent US20250326713A1, “INHIBITORS OF MsbA AS ANTIBIOTICS, PHARMACEUTICAL COMPOSITIONS, AND USES THEREOF” (priority 2022, published 2025)
